Measurements: patent publication US7642369B2, “Epoxyketone-based immunoproteasome inhibitors” (University of Kentucky Research Foundation, priority 2006, dated 2010)
Entries after “also recorded” stand apart in the source; their conditions may differ. Like-named read-outs stand apart in the source and are kept apart here.

Experiments:
[1] = test system: proteasome subunits LMP7/X and LMP2; assay: Competition screening assay in EL4 cells with biotin-dihydroeponemycin probe, streptavidin-HRP western blot; assay type: binding, Murine; settings: for Proteasome subunit binding and specificity, competition against biotin-dihydroeponemycin labelling: EL4 cells, 30 min pre-incubation, 1 hr probe, western blot
Method: (§1) Med. Chem. Lett. 9, 3335-3340 (1999) (herein incorporated by reference); and “Towards Immunoproteasome-Specific Inhibitors: An Improved Synthesis of Dihydroeponemycin.” Specifically, various concentrations of these compounds were pre-incubated in EL4 cells at 37° C. for 30 min. […] After cells were lysed, whole cell lysates were analyzed using 12% SDS-PAGE and transferred to PVDF membranes. Biotinylated proteins were then visualized using streptavidin-horseradish peroxidase (HRP) and enhanced chemiluminescence (ECL).
(§2) The western blots were performed using EL4 cells pre-incubated with proteasome inhibitors for 30 min before treating with biotinylated compounds. After 1 hr incubation, cells were lysed, and analyzed by western blot using streptavidin-HRP and ECL.
Similar competition assays were performed to screen for immunoproteasome inhibitors in a EL4 cell model system. EL4 cell system was chosen since these cells highly express catalytic subunits of both the constitutive and immunoproteasomes.
(§3) Cell Culture and Screening Assay: Murine lymphoma EL4 (ATCC) cells were grown in RPMI medium (Gibco), 10% fetal bovine serum and 1% penicillin and streptomycin at […] in a 5% CO2 incubator. […] The cells were then incubated for an additional 1 hour. Cell lysates were analyzed by 12% SDS-PAGE and transferred to PVDF membrane. Proteins that were covalently modified by biotinylated compounds were visualized by enhanced chemiluminescence using streptavidin conjugated horseradish peroxidase (Sigma-Aldrich) or anti-LMP2 (Affinity BioReagents) and Biomax X-ray film (Kodak).

RPMI8226 (MM) = assay: Cell proliferation assay by counting cell numbers after 24 h incubation; assay type: cell-based; settings: cell number after 24 h incubation
Method: (§4) To compare the efficacy of the present LMP2 inhibitor compounds and, in particular, LMP2 inhibitor 15, as compared to prior known inhibitors, comparative tests were conducted using compound 21 in expressing tumor cells. LMP2 inhibitor compound 21 blocked proliferation of lung cancer H460, prostate cancer cells PC3 and multiple myeloma cells RPMI8226, as summarized in Table 2, below.

PC3 (Prostate) = assay: as above; assay type: cell-based; settings: cell number after 24 h incubation
Method: as §4

H460 (Lung) = assay: as above; assay type: cell-based; settings: cell number after 24 h incubation
Method: as §4

[2] = test system: proteasome subunits Z, MECL1, LMP7 and X; assay: Competition screening assay in EL4 cells with biotin-epoxomicin probe, streptavidin-HRP western blot; assay type: binding, Murine; settings: 30 min pre-incubation, 1 hr probe
Method: as §1, §2
Preincubation of EL4 cells with 1 μM of compound 15 (one equivalent of assay probe) was sufficient to selectively modify the catalytic threonine residue of LMP2 subunit, thereby preventing further modification of LMP2 subunit by biotin-dihydroeponemycin, resulting in selective attenuation of LMP2 protein band on western blot.
Cell Culture and Screening Assay: Murine lymphoma EL4 (ATCC) cells were grown in RPMI medium (Gibco), 10% fetal bovine serum and 1% penicillin and streptomycin at […] in a 5% CO2 incubator. […] Cell lysates were analyzed by 12% SDS-PAGE and transferred to PVDF membrane. […]

20S immunoproteasome = assay: Enzyme kinetics: inhibition of chymotrypsin-like activity of purified 20S immunoproteasome, fluorogenic substrate Suc-Leu-Leu-Val-Tyr-AMC; assay type: biochemical, bovine; settings: for Kobs/[I], 20S immunoproteasome: purified 20S immunoproteasome; for Relative selectivity: immunoproteasome/regular proteasome, normalized against epoxomicin
Method: (§5) Since LMP2 is a major catalytic subunit responsible for chymotrypsin-like activity, inactivation of the LMP2 subunit inhibits proteolytic activity of immunoproteasome. […] Enzyme kinetics experiments were also carried out with the purified 20S constitutive proteasome as control.
(§6) Enzyme kinetics were performed by measuring the chymotrypsin-like activity of 20S immunoproteasome and regular proteasome in the presence of compound 15 using a fluorogenic peptide substrate.
(§7) Enzyme Kinetic Studies: kassociation values were determined as follows. Inhibitors were mixed with a fluorogenic peptide substrate and assay buffer [20 mM Tris (pH 8.0), 0.5 mM EDTA, and 0.035% SDS] in a 96-well plate. The chymotrypsin-like activity was assayed using the fluorogenic peptide substrates Suc-Leu-Leu-Val-Tyr-AMC (Sigma-Aldrich). Hydrolysiswas initiated by the addition of bovine 20S proteasome or immunoproteasome (Biomol International), and the reaction was followed by fluorescence (360-nm excitation/460-nm detection) using a Microplate Fluorescence Reader (FL600; Bio-Tek Instruments, Inc., Winnoski, Vt.) employing the software KC4 v.2.5 (Bio-Tek Instruments, Inc., Winooski, Vt.). Reactions were allowed to proceed for 60-90 min, and fluorescence data were collected every 1 min. Fluorescence was quantified as arbitrary units and progression curves were plotted for each reaction as a function of time. kobserved/[I] values were obtained using PRISM program by nonlinear least squares fit of the data to the following equation: fluorescence=vst+[(v0−vs)/kobserved][1−exp(−kobserved t)], where v0 and vs are the initial and final velocities, respectively, and kobserved is the reaction rate constant. […] Reactions were performed using inhibitor concentrations that were <100-fold of those of the proteasome assayed.

WI-38 (Fibroblast) = assay: Cell proliferation assay by counting cell numbers after 24 h incubation; assay type: cell-based; settings: cell number after 24 h incubation
20S regular proteasome = target: T1, 20S regular proteasome (Bos taurus, UniProt Q2TBX6+Q32KL2); assay: Enzyme kinetics: inhibition of chymotrypsin-like activity of purified 20S constitutive (regular) proteasome, fluorogenic substrate Suc-Leu-Leu-Val-Tyr-AMC; assay type: biochemical, bovine; settings: for kinact/KI: read-out: Kobs/[I], 20S regular proteasome
T1 construct: purchased Biomol International
Method: as §5, §6, §7

LMP2 subunit = target: T2, LMP2 subunit (Mus musculus, UniProt O35955+P28076); assay: LMP2 mobility shift in EL4 cells, western blot with anti-LMP2 antibody; assay type: binding, Murine; settings: 1 hr at 37° C.; for Covalent modification of LMP2, mobility shift of adduct on SDS PAGE: anti-LMP2 western blot
T2 construct: sufficient to modify LMP2 subunits present in cells; endogenous in cells; host or cells: EL4 murine lymphoma cells (ATCC)
Method: The mobility shift of LMP2:15 adduct was investigated to further verify that compound 15 covalently modifies the LMP2 subunit (FIG. 5). After EL4 cells were incubated with compound 15 or assay probes (Biotin-EPX and Biotin-EPN) for 1 hr at 37° C., cells were lysed and boiled for 15 min. Whole cell proteins were then analyzed by western blot using anti-LMP2 antibody.
Since molecular weights of the LMP2 subunit are increased by 828.08 (for biotin-epoxomicin) and 1078.45 (for biotin-dihydroeponemycin), assay probe-LMP2 adducts are expected to show a slower mobility as compared to free LMP2 (lanes 1-3, FIG. 5). […] It can be explained by a smaller molecular weight of compound 15 (484.76) compared to assay probes (828.08 and 1078.45). […] LMP2 inhibitor efficiently blocks the proteolytic activity of immunoproteasome with high specificity. Screening assay and mobility shift studies have shown that compound 15 selectively inactivates the LMP2 subunit via covalent modification. Since LMP2 is a major catalytic subunit responsible for chymotrypsin-like activity, inactivation of the LMP2 subunit inhibits proteolytic activity of immunoproteasome. Confirmation of this is provided by enzyme kinetics studies performed using purified 20S immunoproteasome. Enzyme kinetics experiments were also carried out with the purified 20S constitutive proteasome as control.
as §3

CCCCCCC(=O)N[C@@H](CO)C(=O)N[C@@H](CC(C)C)C(=O)[C@@]1(COCOC)CO1 [Compound 11]
Proteasome subunit binding and specificity, competition against biotin-dihydroeponemycin labelling [1]: do not selectively target proteasome subunits; also recorded: dramatic loss in the potency and specificity compared to dihydroeponemycin

CC[C@H](C)[C@H](NC(=O)[C@H]([C@@H](C)CC)N(C)C(C)=O)C(=O)N[C@H](C(=O)N[C@@H](CC(C)C)C(=O)[C@@]1(C)CO1)[C@@H](C)O [Epoxomicin, epoxomicin]
IC50 (RPMI8226 (MM)): 100 nM | IC50 (PC3 (Prostate)): 10 nM | IC50 (H460 (Lung)): 100 nM | Proteasome subunit binding, competition against biotin-epoxomicin labelling [2]: proteasome subunit (Z, MECL1, LMP7 and X) bands are efficiently competed away | Proteasome subunit binding, competition against biotin-epoxomicin labelling ([2]; listed as epoximicin): do not have specificity towards subunits of either the constitutive or immunoproteasomes | Kobs/[I], 20S immunoproteasome (20S immunoproteasome; chymotrypsin-like activity): 3,044 ± 1,423 M^−1S^−1 | IC50 (WI-38 (Fibroblast)): 28 nM

CCCCCCC(=O)N[C@@H](C)C(=O)N[C@@H](CC(C)C)C(=O)[C@@]1(CO)CO1 [Compound 9]
Proteasome subunit binding and specificity, competition against biotin-dihydroeponemycin labelling [1]: LMP7/X and LMP2 protein bands are competed away

CCCCCCC(=O)N[C@@H](C)C(=O)N[C@@H](CC(C)C)C(=O)[C@@]1(CO[Si](C)(C)C(C)(C)C)CO1 [Compound 15]
Inhibition of chymotrypsin-like activity of 20S regular proteasome (in words) (20S regular proteasome; fluorogenic peptide substrate): poorly inhibited the chymotrypsin-like activity of 20S regular proteasome | kinact/KI (20S regular proteasome): 49 ± 18 M⁻¹ s⁻¹ | Covalent modification of LMP2, mobility shift of adduct on SDS PAGE (LMP2 subunit): covalently modify the immunoproteasome subunit LMP2 | Covalent modification of LMP2, mobility shift of adduct on SDS PAGE (LMP2 subunit; listed as compound 15): slower mobility for the LMP2-15 adduct on SDS PAGE was clearly shown as compared to free LMP2 | Concentration sufficient to modify LMP2 subunits present in cells (LMP2 subunit; mobility shift): 1 µM | Concentration sufficient to selectively modify the catalytic threonine residue of LMP2 subunit ([1]; EL4 cells preincubated, one equivalent of assay probe (biotin-dihydroeponemycin)): 1 µM | Proteasome subunit binding and specificity, competition against biotin-dihydroeponemycin labelling [1]: selectively targeting the immunoproteasome subunit LMP2; also recorded: even higher specificity towards the LMP2 subunit was obtained | Kobs/[I], 20S immunoproteasome (20S immunoproteasome; chymotrypsin-like activity): 83 ± 27 M^−1S^−1 | higher selectivity toward the 20S immunoproteasome in comparison to dihydroeponemycin (20S immunoproteasome; chymotrypsin-like activity, versus dihydroeponemycin): 5 fold | higher selectivity toward the 20S immunoproteasome in comparison to epoxomicin (20S immunoproteasome; chymotrypsin-like activity, versus epoxomicin): 24 fold | Inhibition of chymotrypsin-like activity of 20S immunoproteasome (in words) (20S immunoproteasome; fluorogenic peptide substrate): displayed a better inhibitory activity against the immunoproteasome; also recorded: time- and concentration-dependent inhibition | Relative selectivity (20S immunoproteasome): 24

CCCCCCC(=O)N[C@@H](CO)C(=O)N[C@@H](CC(C)C)C(=O)[C@@]1(COCOCCOC)CO1 [Compound 12]
Proteasome subunit binding and specificity, competition against biotin-dihydroeponemycin labelling [1]: selectively targeting the immunoproteasome subunit LMP2; also recorded: high specificity towards LMP2 was achieved

CC(C)CCCCC(=O)N[C@@H](CO)C(=O)N[C@@H](CC(C)C)C(=O)[C@@]1(CO)CO1 [Dihydroeponemycin, dihydroeponemycin, reference compound]
kinact/KI (20S regular proteasome; chymotrypsin-like activity, purified 20S constitutive proteasome): 721 ± 84 M⁻¹ s⁻¹ | Proteasome subunit binding and specificity, competition against biotin-dihydroeponemycin labelling [1]: LMP7/X and LMP2 protein bands are competed away; also recorded: do not have specificity towards subunits of either the constitutive or immunoproteasomes | Kobs/[I], 20S immunoproteasome (20S immunoproteasome; chymotrypsin-like activity): 251 ± 121 M^−1S^−1 | Relative selectivity (20S immunoproteasome): 5
